The source of these data is PMC7708037, “Targeting OGG1 arrests cancer cell proliferation by inducing replication stress” (Nucleic Acids Research, 2020).

On the set-up of data set [1]: method as in PMID 30442810. The following applies: cited from earlier work.
For the next data set, the system named is A3 OGG1-shRNA cells. Briefly: Off-target evaluation in OGG1 knockdown A3 cells. In kind it is cell-based, human. The procedure: Figure 4. Anticancer properties overlap between OGG1 loss and OGG1 inhibitors. (A) Viability of T-cell acute […] leukemia cell lines treated for 5 days with the indicated doses TH5487. Data are average ±SD of independent experiments (A3, n = 5; Jurkat, n = 3; MOLT-4, n = 4; CCRF-CEM, n = 3). (B) Relative cell numbers and (C) viability (%) for A3 cells treated for 5 days with 10 μM TH5487. Data are average ±SD of six replicates from three independent experiments. (D) Induction of apoptosis in A3 cells treated for 72 h TH5487 and stained for Annexin V. Data are average ±SD of three independent experiments. (E) A3 cells transfected with shRNA targeting OGG1 were treated with doxycycline for 6 days and stained for Annexin V. Data are average ±SD of two independent experiments. (F) Scheme for recovery experiment in which A3 OGG1-shRNA cells or A3 cells were silenced or inhibited for 6 days with doxycycline (200 nM) or TH5487 (10 μM). […] Statistical significance was determined using unpaired, two-sided t-tests (*P < 0.05, **P < 0.01, ***P < 0.001, ****P < 0.0001, ns, non-significant). […]
Statistical significance was determined using unpaired, two -sided T-tests (ns, non-significant, *, P<0.05, **, P<0.01, ***, P<0.001 and ****, P<0.0001) . […] D. Comparative bar graph with quantification from two independent Western blots. […]

The next data set has as its system CD3+ T-cells. Briefly: CD3 flow cytometry assay (T-cell survival). Type of data set: cell-based. Set-up: Survival of CD3+ T-cells (flow cytometry): dose or concentration left out as unconfirmed. As for the experimental part: The experiment was performed on blood cells from 4 different healthy individuals, with three replicates each. Human peripheral blood mononuclear cells were isolated from fresh buffy coats obtained from healthy donors via the Karolinska Hospital, Stockholm, Sweden. For separation, Ficoll-Paque PLUS density medium (17144003, GE Healthcare) and SepMate separation tubes (85450, StemCell) were used, according to manufacturer's instructions. Briefly, buffy coat diluted 1:1 with PBS and layered on 15 ml of Ficoll-Paque PLUS in the SepMate tubes was spun down for 10 min at […]. The upper layer of the tube content was then poured into new falcon tubes and washed twice with PBS.
Cells were seeded out in round bottom 96-well plates (83.3925.500, Sarstedt) in RPMI Medium 1640 containing GlutaMAX™ (61870-010, ThermoFisher) supplemented with 10% human AB+ male heat inactivated clotted whole blood serum (H5667, Sigma-Aldrich) and 100 U/ml penicillin/streptomycin (15140122, Gibco). […] Only viable cells were counted, using a TC20™ automated cell counter (Bio-Rad) and Trypan blue (1450021, Bio-Rad). […]
10 000 events from an FSC-SSC gate set on the typical living lymphocyte population were collected and the data was compensated and analyzed using FlowJo 10.5.3. […] The number of CD3 positive, viable events was quantified and then divided by the number of Precision Count Beads™ collected per tube. […]
In general terms: A flow cytometer gives signals particle by particle.

On the set-up of data set [2]: method as in PMID 30442810. The settings on record: cited from earlier work. The source holds these as a separate data set.

As to `O=C(Nc1ccc(I)cc1)N1CCC(n2c(=O)[nH]c3c(Br)cccc32)CC1` [TH5487], in data set [1], the Tolerability in mice result is given as “well tolerated”. For the same compound, the “Additional toxic effect in combination with doxycycline” value in the data set on A3 OGG1-shRNA cells (A3 sh2, 6 days) was “additional toxic effect”. Further, in the data set with A3 OGG1-shRNA cells (doxycycline 5 days, then additional 48 h with 10 μM), the “Additional toxic effect in OGG1 knockdown cells” value is listed as “no significant additional toxic effect”. In addition, in the data set on CD3+ T-cells (Dynabeads-activated, 6 days), the “Survival of CD3+ T-cells (flow cytometry)” value is on record as “well tolerated”. Also, the “Tolerance by primary T-cells” value in the data set on CD3+ T-cells (the same dose (10 μM), healthy donors) is reported as “well tolerated”. For the same compound, the “Stability in mouse serum” value in data set [2] is on record as “stable”.
